US8871753B2, “Macrocyclic compounds and their use as kinase inhibitors” (Incyte Corporation, priority 2008, dated 2014)
Where a name gives a salt, the structure may show the parent alone. Read-outs that look alike come from different tables or passages of the source.

Assays:
Assay type in all cases: biochemical
[1] = target: T1, Recombinant Human Anaplastic Lymphoma Kinase (Homo sapiens, UniProt Q9UM73); experiment: ALK HTRF kinase assay
T1 construct: purchased Invitrogen, Carlsbad, Calif
Outline: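 Biotinylated peptide substrate, recombinant human ALK; detection via europium-chelate antibody to phosphotyrosine paired with streptavidin-APC. Potency expressed as IC50 from four-parameter curve fitting.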

TYK2 = TYK2 (Homo sapiens, UniProt P29597); experiment: TYK2 kinase inhibition (Table A1)
TYK2, sequence (P29597 whole entry): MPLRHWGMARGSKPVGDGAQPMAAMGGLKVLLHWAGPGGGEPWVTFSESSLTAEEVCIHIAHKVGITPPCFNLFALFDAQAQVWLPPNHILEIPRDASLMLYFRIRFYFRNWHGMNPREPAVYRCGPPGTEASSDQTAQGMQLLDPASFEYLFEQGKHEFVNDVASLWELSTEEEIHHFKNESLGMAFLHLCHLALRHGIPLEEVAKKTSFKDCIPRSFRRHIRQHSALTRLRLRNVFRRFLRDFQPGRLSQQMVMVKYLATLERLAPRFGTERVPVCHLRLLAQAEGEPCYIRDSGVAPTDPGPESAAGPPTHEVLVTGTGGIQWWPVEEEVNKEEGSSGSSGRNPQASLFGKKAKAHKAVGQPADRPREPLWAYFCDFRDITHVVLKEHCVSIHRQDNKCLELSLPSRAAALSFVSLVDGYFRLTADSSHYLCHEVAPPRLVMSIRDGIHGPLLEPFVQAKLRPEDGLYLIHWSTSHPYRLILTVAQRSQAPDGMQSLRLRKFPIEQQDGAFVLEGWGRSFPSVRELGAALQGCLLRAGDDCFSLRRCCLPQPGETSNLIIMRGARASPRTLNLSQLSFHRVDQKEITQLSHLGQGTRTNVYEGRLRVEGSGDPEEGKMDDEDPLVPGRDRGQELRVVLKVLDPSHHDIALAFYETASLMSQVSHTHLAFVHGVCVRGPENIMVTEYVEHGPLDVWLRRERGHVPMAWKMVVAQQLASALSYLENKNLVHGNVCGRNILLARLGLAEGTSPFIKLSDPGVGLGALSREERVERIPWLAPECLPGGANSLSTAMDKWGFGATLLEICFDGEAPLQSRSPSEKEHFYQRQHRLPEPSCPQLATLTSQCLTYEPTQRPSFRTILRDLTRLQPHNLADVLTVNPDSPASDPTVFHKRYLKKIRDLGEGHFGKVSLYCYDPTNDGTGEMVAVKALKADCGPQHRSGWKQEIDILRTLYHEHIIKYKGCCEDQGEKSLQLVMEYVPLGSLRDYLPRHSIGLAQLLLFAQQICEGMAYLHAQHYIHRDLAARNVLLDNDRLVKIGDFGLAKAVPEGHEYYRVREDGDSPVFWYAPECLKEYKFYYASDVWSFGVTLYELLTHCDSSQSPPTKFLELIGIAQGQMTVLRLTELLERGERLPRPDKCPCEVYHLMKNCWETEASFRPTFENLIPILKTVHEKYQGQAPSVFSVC

[2] = target: T2, human JAK1 (a.a. 837-1142) (Homo sapiens, UniProt P23458); experiment: In vitro JAK kinase assay (HTRF, phosphorylation of a biotinylated peptide), JAK1; conditions: read-out: JAK1 IC50
T2 construct: human JAK1 (a.a. 837-1142); His tag (N); made in house; host or cells: insect cells (baculovirus)
T2 sequence (P23458 849-1154): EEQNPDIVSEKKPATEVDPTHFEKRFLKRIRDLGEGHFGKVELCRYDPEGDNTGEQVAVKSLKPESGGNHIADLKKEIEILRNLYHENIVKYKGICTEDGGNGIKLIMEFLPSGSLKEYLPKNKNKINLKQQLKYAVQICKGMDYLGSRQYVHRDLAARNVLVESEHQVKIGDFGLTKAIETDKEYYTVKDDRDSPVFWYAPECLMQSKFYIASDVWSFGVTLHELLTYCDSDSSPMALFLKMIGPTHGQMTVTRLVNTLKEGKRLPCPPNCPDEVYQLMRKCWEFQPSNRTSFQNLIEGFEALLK
Outline: (§1)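 Kinase activity was measured as phosphorylation of a biotinylated peptide, with ATP at 90 μM for JAK1, 30 μM for JAK2 and 3 μM for JAK3. Reactions ran 1 hr at room temperature, were stopped with EDTA plus SA-APC and Eu-Py20, and were read by HTRF after 40 minutes of antibody binding.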

[3] = target: T3, human JAK3 (a.a. 781-1124) (Homo sapiens, UniProt P52333); experiment: In vitro JAK kinase assay (HTRF, phosphorylation of a biotinylated peptide), JAK3
T3 construct: JAK3 (a.a. 781-1124); His tag (N); made in house; host or cells: insect cells (baculovirus)
T3 sequence (P52333 781-1124): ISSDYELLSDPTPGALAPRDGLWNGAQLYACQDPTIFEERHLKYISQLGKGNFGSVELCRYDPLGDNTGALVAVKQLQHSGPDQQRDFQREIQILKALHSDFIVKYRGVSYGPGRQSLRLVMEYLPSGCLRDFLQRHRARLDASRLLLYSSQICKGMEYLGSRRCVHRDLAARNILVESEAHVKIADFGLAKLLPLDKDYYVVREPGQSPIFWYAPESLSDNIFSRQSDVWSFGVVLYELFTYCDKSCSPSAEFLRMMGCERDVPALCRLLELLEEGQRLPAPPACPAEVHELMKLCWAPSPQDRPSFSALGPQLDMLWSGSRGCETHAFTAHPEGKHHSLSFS
Outline: as §1

[4] = target: T4, human JAK2 (a.a. 828-1132) (Homo sapiens, UniProt O60674); experiment: In vitro JAK kinase assay (HTRF, phosphorylation of a biotinylated peptide), JAK2
T4 construct: JAK2 (a.a. 828-1132); His tag (N); made in house; host or cells: insect cells (baculovirus)
T4 sequence (O60674 828-1132): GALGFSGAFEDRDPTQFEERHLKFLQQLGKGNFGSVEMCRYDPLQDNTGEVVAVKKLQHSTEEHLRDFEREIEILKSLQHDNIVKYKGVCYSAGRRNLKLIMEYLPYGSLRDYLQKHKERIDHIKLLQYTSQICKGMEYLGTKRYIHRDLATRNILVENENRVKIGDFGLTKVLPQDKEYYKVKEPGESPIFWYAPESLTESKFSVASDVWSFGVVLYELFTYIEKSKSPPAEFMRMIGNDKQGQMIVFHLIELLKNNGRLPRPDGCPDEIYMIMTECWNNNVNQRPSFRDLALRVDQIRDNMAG
Outline: as §1

[5] = compound at 500 nM or 1 mM, 90 μM ATP
[6] = method AA1 (90 μM ATP) or AA2 (1000 μM ATP), not stated per value
[7] = method AA1 (3 μM ATP) or AA2 (1000 μM ATP), not stated per value
[8] = method AA1 (30 μM ATP) or AA2 (1000 μM ATP), not stated per value
[9] = compound at a concentration of 500 nM or 1 mM (not specified), cells shown as percentage
[10] = Table B1, cells without percent sign

T1 sequence (Q9UM73 19-1620): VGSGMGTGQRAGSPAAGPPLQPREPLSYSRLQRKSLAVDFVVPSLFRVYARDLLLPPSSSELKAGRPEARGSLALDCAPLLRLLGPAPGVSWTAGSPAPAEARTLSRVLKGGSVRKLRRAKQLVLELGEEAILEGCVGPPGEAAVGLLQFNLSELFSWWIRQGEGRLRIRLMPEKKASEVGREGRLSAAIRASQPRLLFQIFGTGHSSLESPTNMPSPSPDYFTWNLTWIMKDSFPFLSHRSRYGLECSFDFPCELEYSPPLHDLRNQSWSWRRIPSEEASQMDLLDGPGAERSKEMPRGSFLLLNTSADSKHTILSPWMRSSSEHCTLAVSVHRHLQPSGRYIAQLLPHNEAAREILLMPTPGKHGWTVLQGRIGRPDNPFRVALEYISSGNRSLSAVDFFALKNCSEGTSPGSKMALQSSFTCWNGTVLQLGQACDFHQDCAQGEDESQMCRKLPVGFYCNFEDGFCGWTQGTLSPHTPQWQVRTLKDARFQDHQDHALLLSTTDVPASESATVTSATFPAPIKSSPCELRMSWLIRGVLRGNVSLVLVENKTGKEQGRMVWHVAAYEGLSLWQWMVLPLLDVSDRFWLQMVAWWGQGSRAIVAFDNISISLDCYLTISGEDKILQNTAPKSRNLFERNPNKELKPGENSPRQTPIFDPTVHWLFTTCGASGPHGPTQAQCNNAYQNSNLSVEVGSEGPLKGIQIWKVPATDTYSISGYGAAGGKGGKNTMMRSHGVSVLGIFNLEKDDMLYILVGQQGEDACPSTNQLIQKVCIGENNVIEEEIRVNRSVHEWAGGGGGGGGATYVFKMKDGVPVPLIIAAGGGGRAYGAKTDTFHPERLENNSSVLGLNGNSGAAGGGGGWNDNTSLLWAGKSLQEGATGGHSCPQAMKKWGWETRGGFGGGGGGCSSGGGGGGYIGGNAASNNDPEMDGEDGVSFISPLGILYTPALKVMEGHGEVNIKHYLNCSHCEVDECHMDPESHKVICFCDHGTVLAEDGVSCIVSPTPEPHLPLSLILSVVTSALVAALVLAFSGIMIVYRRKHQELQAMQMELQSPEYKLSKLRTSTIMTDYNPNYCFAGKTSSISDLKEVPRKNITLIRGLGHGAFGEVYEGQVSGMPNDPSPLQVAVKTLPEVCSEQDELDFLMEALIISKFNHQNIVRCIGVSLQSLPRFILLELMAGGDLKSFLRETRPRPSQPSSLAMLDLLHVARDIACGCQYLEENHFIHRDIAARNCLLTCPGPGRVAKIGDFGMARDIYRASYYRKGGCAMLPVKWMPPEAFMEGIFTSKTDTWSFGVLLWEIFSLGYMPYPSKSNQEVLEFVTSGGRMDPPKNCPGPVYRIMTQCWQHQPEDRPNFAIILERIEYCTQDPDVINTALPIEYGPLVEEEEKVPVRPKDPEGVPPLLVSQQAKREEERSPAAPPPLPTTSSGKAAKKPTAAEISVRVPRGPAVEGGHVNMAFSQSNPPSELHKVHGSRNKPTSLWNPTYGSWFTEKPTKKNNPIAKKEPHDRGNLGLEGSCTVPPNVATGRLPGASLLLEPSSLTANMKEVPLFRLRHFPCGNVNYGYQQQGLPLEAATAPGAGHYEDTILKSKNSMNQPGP

Row | Structure (SMILES) | ALK % of inhibition at a concentration of 500 nM or 1 mM [1, 5] [%] | IC50 (TYK2) [nM] | IC50 [2, 6] [nM] | IC50 [3, 7] [nM] | IC50 [4, 8] [nM] | IC50 (TYK2; Table B1) [nM] | IC50 ([2]; Table B1) [nM] | IC50 ([3]; Table B1) [nM] | IC50 ([4]; Table B1) [nM] | also measured
1 | O=C(CC1CCN(C(=O)Nc2ccc(F)cc2)CC1)Nc1ccc2cc1CCc1cncc(c1)Nc1ncc(Cl)c(n1)N2 [Example A148, 4-(2-{[6-Chloro-2,4,8,18,22-pentaazatetracyclo[14.3.1.1(3,7).1(9,13)]docosa-1(20),3(22),4,6,9(21),10,12,16,18-nonaen-12-yl]amino}-2-oxoethyl)-N-(4-fluorophenyl)piperidine-1-carboxamide bis(trifluoroacetate)] | 42 | 3.9 | 0.2 | > 100 | 1.5 |  |  |  |  | 
2 | Clc1cnc2nc1Nc1cccc(c1)SCc1cccc(c1)N2 [Example D1, 6-Chloro-14-thia-2,4,8,22-tetraazatetracyclo[14.3.1.1(3,7).1(9,13)]docosa-1(20),3(22),4,6,9(21),10,12,16,18-nonaene trifluoroacetate] |  |  |  |  |  |  |  |  |  | IC50 ([1]; Table D1, 90 μM ATP): 620 nM; IC50 (TYK2; Table D1): 14 nM; IC50 ([2]; Table D1): 13 nM; IC50 ([3]; Table D1): 16 nM; IC50 ([4]; Table D1): 9.6 nM
3 | CC(C)(C)NC(=O)N1CCN(c2cc(-c3cc4cc(c3)Nc3ncc(Cl)c(n3)Nc3cccc(c3)OCC4)ccn2)CC1 [Example D41, N-(tert-Butyl)-4-{4-[6-chloro-14-oxa-2,4,8,23-tetraazatetracyclo[15.3.1.1(3,7).1(9,13)]tricosa-1(21),3(23),4,6,9(22),10,12,17,19-nonaen-19-yl]pyridin-2-yl}piperazine-1-carboxamide bis(trifluoroacetate)] |  |  |  |  |  |  |  |  |  | IC50 ([1]; Table D1, 90 μM ATP): 280 nM; IC50 (TYK2; Table D1): 6.2 nM; IC50 ([2]; Table D1): 3.1 nM; IC50 ([3]; Table D1): 17 nM; IC50 ([4]; Table D1): 0.4 nM
4 | O=C(CN1CCNCC1)Nc1ccc2cc1CCc1cncc(c1)Nc1ncc(Cl)c(n1)N2 [Example A115, N-[6-Chloro-2,4,8,18,22-pentaazatetracyclo[14.3.1.1(3,7).1(9,13)]docosa-1(20),3(22),4,6,9(21),10,12,16,18-nonaen-12-yl]-2-piperazin-1-acetamide tetrakis(trifluoroacetate)] | 20 | 45 | 34 | 300 | 42 |  |  |  |  | 
5 | O=C1CCc2cccc(c2)Nc2nc(ncc2Cl)Nc2cccc(c2)N1 [Example D76, 6-Chloro-2,4,8,17,24-pentaazatetracyclo[16.3.1.1(3,7).1(9,13)]tetracosa-1(22),3(24),4,6,9(23),10,12,18,20-nonaen-16-one trifluoroacetate] |  |  |  |  |  |  |  |  |  | IC50 ([1]; Table D1, 90 μM ATP): 2050 nM; IC50 (TYK2; Table D1): 13 nM; IC50 ([2]; Table D1): 11 nM; IC50 ([3]; Table D1): 117 nM; IC50 ([4]; Table D1): 18 nM
6 | Cn1cncc1C(=O)N1CCC(CC(=O)Nc2ccc3cc2CCc2cncc(c2)Nc2ncc(Cl)c(n2)N3)CC1 [Example A134, N-[6-Chloro-2,4,8,18,22-pentaazatetracyclo[14.3.1.1(3,7).1(9,13)]docosa-1(20),3(22),4,6,9(21),10,12,16,18-nonaen-12-yl]-2-{1-[(1-methyl-1H-imidazol-5yl)carbonyl]piperidin-4-yl}acetamide bis(trifluoroacetate)] | 30 | 25 | 6.2 | 226 | 18 |  |  |  |  | 
7 | Cc1ccc(NC(=O)N2CCC(CC(=O)Nc3ccc4cc3CCc3cncc(c3)Nc3ncc(Cl)c(n3)N4)CC2)cc1 [Example A151, 4-(2-{[6-Chloro-2,4,8,18,22-pentaazatetracyclo[14.3.1.1(3,7).1(9,13)]docosa-1(20),3(22),4,6,9(21),10,12,16,18-nonaen-12-yl]amino}-2-oxoethyl)-N-(4-methylphenyl)piperidine-1-carboxamide bis(trifluoroacetate)] | 45 | 3.8 | 0.3 | > 100 | 1.4 |  |  |  |  | 
8 | [O-][S+]1Cc2cccc(c2)Nc2nc(ncc2Cl)Nc2cccc1c2 (stereo not shown) [Example D3, 6-Chloro-15-thia-2,4,8,22-tetraazatetracyclo[14.3.1.1(3,7).1(9,13)]docosa-1(20),3(22),4,6,9(21),10,12,16,18-nonaene 15-oxide trifluoroacetate] |  |  |  |  |  |  |  |  |  | IC50 ([1]; Table D1, 90 μM ATP): 1110 nM; IC50 (TYK2; Table D1): 40 nM; IC50 ([2]; Table D1): 25 nM; IC50 ([3]; Table D1): 13 nM; IC50 ([4]; Table D1): 6.3 nM
9 | O=C(CNC(=O)Nc1ccccc1)Nc1ccc2cc1CCc1cccc(c1)Nc1ncc(Cl)c(n1)N2 [Example A66, 2-[(Anilinocarbonyl)amino]-N-[6-chloro-2,4,8,22-tetraazatetracyclo[14.3.1.1(3,7).1(9,13)]docosa-1(20),3(22),4,6,9(21),10,12,16,18-nonaen-12-yl]acetamide trifluoroacetate] | 26 | 21 | 9 | 6.2 | 3.1 |  |  |  |  | 
10 | N#Cc1c(F)cccc1N1CCC(CC(=O)Nc2ccc3cc2CCc2cncc(c2)Nc2ncc(Cl)c(n2)N3)CC1 [Example A234, N-[6-Chloro-2,4,8,18,22-pentaazatetracyclo[14.3.1.1(3,7).1(9,13)]docosa-1(20),3(22),4,6,9(21),10,12,16,18-nonaen-12-yl]-2-[1-(2-cyano-3-fluorophenyl)piperidin-4-yl]acetamide tris(trifluoroacetate)] | 13 | 72 | 1.5 | > 400 | 80 |  |  |  |  | 
11 | Clc1cnc2nc1Nc1cccc(c1)CCNc1cccc(c1)N2 [Example D78, 6-Chloro-2,4,8,16,23-pentaazatetracyclo[15.3.1.1(3,7).1(9,13)]tricosa-1(21), 3(23),4,6,9(22),10,12,17,19-nonaene bis(trifluoroacetate)] |  |  |  |  |  |  |  |  |  | IC50 ([1]; Table D1, 90 μM ATP): 791 nM; IC50 (TYK2; Table D1): 19 nM; IC50 ([2]; Table D1): 30 nM; IC50 ([3]; Table D1): 30 nM; IC50 ([4]; Table D1): 10 nM

Now from value to molecule, other results behind:

Row | ALK % of inhibition at a concentration of 500 nM or 1 mM [1, 5] [%] | IC50 (TYK2) [nM] | IC50 [2, 6] [nM] | IC50 [3, 7] [nM] | IC50 [4, 8] [nM] | IC50 (TYK2; Table B1) [nM] | IC50 ([2]; Table B1) [nM] | IC50 ([3]; Table B1) [nM] | IC50 ([4]; Table B1) [nM] | Structure (SMILES) | also measured
12 |  |  |  |  |  | 5.5 | 2 | 6.4 | 1.6 | CCS(=O)(=O)NCCNC(=O)Nc1ccc2cc1CCc1cccc(c1)Nc1ncc(Cl)c(n1)N2 [Example B325, N-{2-[({[6-Chloro-2,4,8,22-tetraazatetracyclo[14.3.1.1(3,7).1(9,13)]docosa-1(20),3(22),4,6,9(21),10,12,16,18-nonaen-12-yl]amino}carbonyl)amino]ethyl}ethanesulfonamide trifluoroacetate] | ALK % of inhibition at a concentration of 500 nM or 1 mM ([1]; percentage inhibition of the example compound at a concentration of 500 nM or 1 mM (not specified which)): 19%
13 |  |  |  |  |  | 96 | 11 | 198 | 27 | O=C(Nc1ccc(OC(F)(F)F)cc1)Nc1ccc2cc1CCc1cccc(c1)Nc1ncc(Cl)c(n1)N2 [Example B132, N-[6-Chloro-2,4,8,22-tetraazatetracyclo[14.3.1.1(3,7).1(9,13)]docosa-1(20), 3(22),4,6,9(21),10,12,16,18-nonaen-12-yl]-N′-[4-(trifluoromethoxy)phenyl]urea trifluoroacetate] | ALK % of inhibition at a concentration of 500 nM or 1 mM [1, 9]: 5%
14 |  |  |  |  |  | 9.6 | 1.9 | 24 | 4.9 | O=C(Nc1ccc2cc1CCc1cccc(c1)Nc1ncc(Cl)c(n1)N2)c1ccc2c(c1)OCO2 [Example B71, N-[6-Chloro-2,4,8,22-tetraazatetracyclo[14.3.1.1(3,7).1(9,13)]docosa-1(20), 3(22),4,6,9(21),10,12,16,18-nonaen-12-yl]-1,3-benzodioxole-5-carboxamide trifluoroacetate] | ALK % of inhibition at a concentration of 500 nM or 1 mM [1, 9]: 43%
15 |  |  |  |  |  | > 1000 | 225 | 199 | 71 | Clc1cccc(N2CCN(Cc3cc4cc(c3)Nc3nc(ncc3Cl)Nc3cccc(c3)CC4)CC2)n1 [Example B217, 6-Chloro-11-{[4-(6-chloropyridin-2-yl)piperazin-1-yl]methyl}-2,4,8,22-tetraazatetracyclo[14.3.1.1(3,7).1(9,13)]docosa-1(20),3(22),4,6,9(21),10,12,16,18-nonaene tris(trifluoroacetate)] | IC50 [1, 10]: > 10000 nM
16 |  |  |  |  |  | 0.86 | 0.41 | 6.3 | 0.15 | Cc1ccc(S(=O)(=O)Nc2ccc3cc2CCc2cccc(c2)Nc2ncc(Cl)c(n2)N3)cc1 [Example B150, N-[6-Chloro-2,4,8,22-tetraazatetracyclo[14.3.1.1(3,7).1(9,13)]docosa-1(20), 3(22),4,6,9(21),10,12,16,18-nonaen-12-yl]-4-methylbenzenesulfonamide trifluoroacetate] | IC50 [1, 10]: 180 nM
17 |  |  |  |  |  | 6.3 | 0.74 | 29 | 1.7 | O=C(Nc1ccc2cc1CCc1cccc(c1)Nc1ncc(Cl)c(n1)N2)NC1CCCC1 [Example B88, N-[6-Chloro-2,4,8,22-tetraazatetracyclo[14.3.1.1(3,7).1(9,13)]docosa-1(20), 3(22),4,6,9(21),10,12,16,18-nonaen-12-yl]-N′-cyclopentylurea trifluoroacetate] | IC50 [1, 10]: 930 nM
